Laboratory results taken from paper PMC8162438, “Cancer cell-selective modulation of mitochondrial respiration and metabolism by potent organogold(III) dithiocarbamates” (Chemical Science, 2020).

System: MDA-MB-231
Assay: Whole-cell gold uptake by ICP-OES
Assay type: cell-based
Conditions: MDA-MB-231, 5 μM, 24 h
Method: We next performed cellular uptake studies to determine what percentage of the compounds were getting into the cell after treatment. Given that most therapeutic targets are localized receptors on the plasma membrane, quantifying the amount of gold compounds in cellular fractions and investigating their mode of uptake is crucial. For whole-cell uptake studies, MDA-MB-231 were treated with all 10 compounds and Auranofin at 5 μM for 24 h (Fig. 5A). Auranofin is the only gold-based therapeutic to be clinically approved, therefor we used this drug as a benchmark for comparison.[67] After treatment, the cells were washed with PBS, centrifuged, and digested with 0.5 mL of conc. […] Given that these complexes readily react with nucleophilic biological molecules and the lack of accumulation in the nuclear fraction, it is evident that the mechanism of action of this class of compounds is differentiated from the clinically available platinum agents. […]
positive control. When ready for analysis, the media were removed and the wells washed with 5 mL of PBS. […] The cells were resuspended in 2 mL of fresh media, counted, and reconstituted to a concentration of 1 x 10^5 cells/mL. […]
Compound 2a was prepared as a stock in DMSO and added to the respective wells at the specified concentrations of 0.1, 1, and 10 µM and treated for 12 h. […] The samples were cooled and stored at −20 °C until ready for use. […]

## C[N+](C)=C1[S][Au-2]2([S]1)[c]1ccccc1C(=O)c1cccc[n+]12.F[P-](F)(F)(F)(F)F (centres unmarked) [1a]
  Intracellular uptake: 3017 pmol per million cells

## C[N+](C)=C1[S][Au-2]2([S]1)[c]1ccccc1Cc1cccc[n+]12.F[P-](F)(F)(F)(F)F (centres unmarked) [2a]
  Intracellular uptake: 3267 pmol per million cells
